We go through 15 molecules from patent publication US20250084056A1, “SUBSTITUTED OXOISOINDOLINYL PIPERIDINE-2,6-DIONE COMPOUNDS” (BRISTOL-MYERS SQUIBB COMPANY, priority 2023, published 2025).

What all share (format): cell-based
In one assay the target is GSPT1 (Homo sapiens, UniProt P15170+Q96SW2). Nature of the assay: GSPT1 Cellular Degradation Assay (DF15-GSPT1-ePL). The arrangement: expressed in transfected cells. The settings on record: DF15-GSPT1-ePL cells, 20 hours. The method in brief:
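DC50 and Dmax were derived from chemiluminescence, with 75% response set by the reference compound at […]. Readout was ePL enzyme-fragment complementation in a DF15 line expressing chimeric GSPT1. Cells were exposed to compound for 20 h at 37 °C in RPMI 1640 with 10% FBS, cooled 30 min, then lysed with substrate for 60 min.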

Another assay has as its target Cyclin E1 (Homo sapiens, UniProt P24864+Q96SW2). Nature of the assay: Cyclin E1 Cellular Degradation Assay (MSD). The arrangement: endogenous in cells; host or cells: OVCAR3. The settings on record: for DC50 / Dmax: Cyclin E1 cellular degradation; for Dmax: maximum degradation; for Ratio of GSPT1 DC50/Cyclin E1 DC50: selectivity for degradation of Cyclin E1 over GSPT1. In outline: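 Cyclin E1 remaining after 24 h compound exposure of OVCAR3 cells was quantified in lysates by electrochemiluminescent MSD sandwich assay. DC50 (50% response concentration) and Dmax (maximum response) were calculated, with 110% response set by a reference compound at […].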

The next assay deals with Phospho-Rb (Ser807/811). Nature of the assay: Phospho-Retinoblastoma (pRB) Cellular Assay. To be noted: Homo sapiens, OVCAR-3, NIH OVCAR3 cells, 24 hours; for IC50: concentration giving 50% response; for Emax: maximum response, reference compound at 10 μM = 100%, read-out: pRB Ymax. The method in brief:
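Phospho-Rb (Ser807/811) kit read-out on EnVision after lysis (≥4 h, room temperature, dark) of OVCAR3 cells exposed to compound dilutions for 24 h. IC50 and maximum response Ymax are relative to a 10 μM reference compound defining 100%.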

Molecules are shown by their SMILES.

Chain of Cyclin E1 (P24864 whole entry): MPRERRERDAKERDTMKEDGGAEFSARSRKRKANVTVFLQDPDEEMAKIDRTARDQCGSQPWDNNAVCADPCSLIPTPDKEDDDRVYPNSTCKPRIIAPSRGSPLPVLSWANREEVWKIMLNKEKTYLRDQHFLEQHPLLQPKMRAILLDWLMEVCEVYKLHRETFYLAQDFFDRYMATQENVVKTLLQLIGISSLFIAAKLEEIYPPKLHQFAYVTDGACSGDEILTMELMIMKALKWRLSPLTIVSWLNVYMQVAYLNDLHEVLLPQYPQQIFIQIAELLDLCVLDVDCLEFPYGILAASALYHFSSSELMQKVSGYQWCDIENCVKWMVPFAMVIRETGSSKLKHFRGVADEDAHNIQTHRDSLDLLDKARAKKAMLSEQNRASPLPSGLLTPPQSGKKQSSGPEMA
Chain of Cyclin E1 (Q96SW2 whole entry): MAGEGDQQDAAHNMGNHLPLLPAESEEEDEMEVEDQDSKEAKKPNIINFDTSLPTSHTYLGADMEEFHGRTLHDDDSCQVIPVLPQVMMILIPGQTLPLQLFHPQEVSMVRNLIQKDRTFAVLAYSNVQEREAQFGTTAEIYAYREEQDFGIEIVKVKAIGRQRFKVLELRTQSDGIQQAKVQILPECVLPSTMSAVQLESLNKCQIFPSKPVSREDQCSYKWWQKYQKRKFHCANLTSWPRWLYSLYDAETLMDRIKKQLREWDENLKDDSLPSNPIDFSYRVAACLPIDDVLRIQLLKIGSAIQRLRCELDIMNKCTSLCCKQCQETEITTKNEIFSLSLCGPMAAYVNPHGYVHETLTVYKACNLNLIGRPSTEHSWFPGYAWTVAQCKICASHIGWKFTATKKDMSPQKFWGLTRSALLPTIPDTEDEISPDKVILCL
Chain of Cyclin E1 (Q16531 whole entry partner): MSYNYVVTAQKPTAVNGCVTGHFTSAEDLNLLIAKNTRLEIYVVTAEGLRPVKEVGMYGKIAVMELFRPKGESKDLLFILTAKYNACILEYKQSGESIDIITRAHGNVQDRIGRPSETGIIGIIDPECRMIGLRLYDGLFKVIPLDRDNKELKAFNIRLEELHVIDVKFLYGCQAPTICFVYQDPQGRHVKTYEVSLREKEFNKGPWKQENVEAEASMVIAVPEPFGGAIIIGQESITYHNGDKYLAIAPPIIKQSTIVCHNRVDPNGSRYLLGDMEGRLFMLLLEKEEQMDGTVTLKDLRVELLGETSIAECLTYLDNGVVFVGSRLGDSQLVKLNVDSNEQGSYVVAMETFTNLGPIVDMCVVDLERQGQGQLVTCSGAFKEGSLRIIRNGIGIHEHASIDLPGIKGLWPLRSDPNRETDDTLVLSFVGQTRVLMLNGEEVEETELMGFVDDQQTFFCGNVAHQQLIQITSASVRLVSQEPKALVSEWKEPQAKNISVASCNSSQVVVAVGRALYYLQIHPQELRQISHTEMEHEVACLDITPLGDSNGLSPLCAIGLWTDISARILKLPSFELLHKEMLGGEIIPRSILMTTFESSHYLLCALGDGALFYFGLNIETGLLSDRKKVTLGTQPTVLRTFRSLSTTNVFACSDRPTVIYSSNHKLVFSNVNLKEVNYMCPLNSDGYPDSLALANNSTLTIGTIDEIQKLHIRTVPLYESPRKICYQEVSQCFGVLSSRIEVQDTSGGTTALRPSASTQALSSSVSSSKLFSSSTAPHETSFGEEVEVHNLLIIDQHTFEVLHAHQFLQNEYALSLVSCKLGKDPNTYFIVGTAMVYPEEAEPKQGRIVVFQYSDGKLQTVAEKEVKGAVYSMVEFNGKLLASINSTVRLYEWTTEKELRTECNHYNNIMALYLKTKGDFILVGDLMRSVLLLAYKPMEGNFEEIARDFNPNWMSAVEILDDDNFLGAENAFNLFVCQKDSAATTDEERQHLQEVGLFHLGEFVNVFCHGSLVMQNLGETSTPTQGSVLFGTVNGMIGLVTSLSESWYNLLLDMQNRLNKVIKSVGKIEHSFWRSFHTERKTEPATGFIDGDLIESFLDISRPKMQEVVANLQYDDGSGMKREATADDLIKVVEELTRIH
Chain of GSPT1 (P15170 whole entry, the tested form may be a part): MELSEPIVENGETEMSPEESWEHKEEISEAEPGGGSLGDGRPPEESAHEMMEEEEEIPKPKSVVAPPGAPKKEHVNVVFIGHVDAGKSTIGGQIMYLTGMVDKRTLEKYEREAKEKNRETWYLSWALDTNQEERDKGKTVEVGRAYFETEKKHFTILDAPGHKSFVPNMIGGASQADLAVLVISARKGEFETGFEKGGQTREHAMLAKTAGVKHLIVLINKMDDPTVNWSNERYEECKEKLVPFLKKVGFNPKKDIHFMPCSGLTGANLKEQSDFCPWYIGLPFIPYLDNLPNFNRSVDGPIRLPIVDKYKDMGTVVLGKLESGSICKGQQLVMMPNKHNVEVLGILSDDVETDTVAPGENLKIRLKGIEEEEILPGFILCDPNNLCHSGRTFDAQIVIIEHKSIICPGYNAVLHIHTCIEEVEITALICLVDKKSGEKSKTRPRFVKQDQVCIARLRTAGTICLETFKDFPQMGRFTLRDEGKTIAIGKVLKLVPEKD
Chain of GSPT1 (Q96SW2 whole entry, the tested form may be a part): as the sequence (Q96SW2 whole entry) above
Chain of GSPT1 (Q16531 whole entry partner, the tested form may be a part): as the sequence (Q16531 whole entry partner) above

Usually DC50 stands for the midpoint of the concentration-degradation curve. Broadly, the Dmax is the greatest extent of degradation seen. The term IC50 denotes the point on the concentration scale where inhibition reaches its midpoint. A low value points to higher potency. For the molecule `COc1c(COC(=O)Nc2ccc(Oc3ccc(F)cc3Cl)cc2C)ccc2c1C(=O)N(C1CCC(=O)NC1=O)C2` (stereo not drawn) [Example 103, [2-(2,6-dioxopiperidin-3-yl)-4-methoxy-3-oxo-2,3-dihydro-1H-isoindol-5-yl]methyl N-[4-(2-chloro-4-fluorophenoxy)-2-methylphenyl]carbamate], at GSPT1, the DC50 was above 14 µM and the Dmax was determined as 22%. Also, on Cyclin E1, it took 0.148 µM to reach half-maximal degradation (DC50), the Dmax worked out at 107% and the “Ratio of GSPT1 DC50/Cyclin E1 DC50” value is on record as above 95. In the assay with Phospho-Rb (Ser807/811), half-maximal inhibition (IC50) required 0.086 µM and the Emax was determined as 100%.

As for `COc1cc(Oc2ccc(F)cc2Cl)ccc1NC(=O)OCc1ccc2c(c1OC)C(=O)N(C1CCC(=O)NC1=O)C2` (stereo not drawn) [Example 104, [2-(2,6-dioxopiperidin-3-yl)-4-methoxy-3-oxo-2,3-dihydro-1H-isoindol-5-yl]methyl N-[4-(2-chloro-4-fluorophenoxy)-2-methoxyphenyl]carbamate], on GSPT1, the DC50 is above 14 µM and the Dmax is 7%. Also, on Cyclin E1, half-maximal degradation (DC50) was put at 0.037 µM, the Dmax was 108% and the “Ratio of GSPT1 DC50/Cyclin E1 DC50” value was above 380. In the assay on Phospho-Rb (Ser807/811), the concentration for half-maximal inhibition (IC50) is 0.05 µM and the Emax was found to be 118%.

In the case of `COc1c(COC(=O)Nc2ccc(Oc3ccc(F)cc3Cl)cc2F)ccc2c1C(=O)N(C1CCC(=O)NC1=O)C2` (stereo not drawn) [Example 105, [2-(2,6-dioxopiperidin-3-yl)-4-methoxy-3-oxo-2,3-dihydro-1H-isoindol-5-yl]methyl N-[4-(2-chloro-4-fluorophenoxy)-2-fluorophenyl]carbamate], on GSPT1, the DC50 is above 14 µM and the Dmax amounted to 50%. At Cyclin E1, half-maximal degradation (DC50) was put at 0.052 µM, the Dmax was found to be 107% and the “Ratio of GSPT1 DC50/Cyclin E1 DC50” value is given as above 268. Moreover, in the assay on Phospho-Rb (Ser807/811), the 50% inhibitory concentration (IC50) is 0.033 µM and the Emax is 120%.

As to `COc1c(COC(=O)Nc2ccc(Oc3cc(F)ccc3Cl)cc2)ccc2c1C(=O)N(C1CCC(=O)NC1=O)C2` (stereo not drawn) [Example 106, [2-(2,6-dioxopiperidin-3-yl)-4-methoxy-3-oxo-2,3-dihydro-1H-isoindol-5-yl]methyl N-[4-(2-chloro-5-fluorophenoxy)phenyl]carbamate], at GSPT1, the 50% degradation concentration (DC50) is above 14 µM and the Dmax amounted to 47%. For the same molecule, on Cyclin E1, the DC50 was found to be 0.057 µM, the Dmax came out at 106% and the “Ratio of GSPT1 DC50/Cyclin E1 DC50” value was above 245. In addition, in the assay with Phospho-Rb (Ser807/811), the half-maximal inhibitory concentration (IC50) turned out to be 0.178 µM and the Emax was 113%.

Take `COc1c(COC(=O)Nc2ccc(Oc3ccccc3Cl)cc2F)ccc2c1C(=O)N(C1CCC(=O)NC1=O)C2` (stereo not drawn) [Example 107, [2-(2,6-dioxopiperidin-3-yl)-4-methoxy-3-oxo-2,3-dihydro-1H-isoindol-5-yl]methyl N-[4-(2-chlorophenoxy)-2-fluorophenyl]carbamate]: on GSPT1, the DC50 is 10 µM and the Dmax came out at 63%. At Cyclin E1, half-maximal degradation (DC50) was put at 0.069 µM, the Dmax is 108% and the “Ratio of GSPT1 DC50/Cyclin E1 DC50” value was 146. Moreover, in the assay with Phospho-Rb (Ser807/811), the half-inhibitory concentration (IC50) is 0.106 µM and the Emax was 124%.

For the molecule `COc1cc(Oc2cc(F)c(F)cc2Cl)ccc1NC(=O)OCc1ccc2c(c1OC)C(=O)N(C1CCC(=O)NC1=O)C2` (stereo not drawn) [Example 108, [2-(2,6-dioxopiperidin-3-yl)-4-methoxy-3-oxo-2,3-dihydro-1H-isoindol-5-yl]methyl N-[4-(2-chloro-4,5-difluorophenoxy)-2-methoxyphenyl]carbamate], on GSPT1, the DC50 was above 14 µM and the Dmax was 24%. In addition, at Cyclin E1, it took 0.099 µM to reach half-maximal degradation (DC50), the Dmax is 106% and the “Ratio of GSPT1 DC50/Cyclin E1 DC50” value is on record as above 142. Further, in the assay on Phospho-Rb (Ser807/811), the midpoint of inhibition, the IC50, lay at 0.111 µM and the Emax was found to be 112%.

On to `COc1c(COC(=O)Nc2ccc(Oc3cc(F)c(F)cc3Cl)cc2F)ccc2c1C(=O)N(C1CCC(=O)NC1=O)C2` (stereo not drawn) [Example 109, [2-(2,6-dioxopiperidin-3-yl)-4-methoxy-3-oxo-2,3-dihydro-1H-isoindol-5-yl]methyl N-[4-(2-chloro-4,5-difluorophenoxy)-2-fluorophenyl]carbamate], for which, at GSPT1, the half-maximal degradation concentration (DC50) was above 14 µM and the Dmax was found to be 42%. Besides, on Cyclin E1, half-maximal degradation (DC50) was put at 0.111 µM, the Dmax turned out to be 107% and the “Ratio of GSPT1 DC50/Cyclin E1 DC50” value was above 127. Also, in the assay on Phospho-Rb (Ser807/811), half-maximal inhibition (IC50) required 0.066 µM and the Emax is 114%.

Regarding `COc1c(COC(=O)Nc2ccc(Oc3cccc(F)c3F)cc2)ccc2c1C(=O)N(C1CCC(=O)NC1=O)C2` (stereo not drawn) [Example 110, [2-(2,6-dioxopiperidin-3-yl)-4-methoxy-3-oxo-2,3-dihydro-1H-isoindol-5-yl]methyl N-[4-(2,3-difluorophenoxy)phenyl]carbamate], on GSPT1, the 50% degradation concentration (DC50) was above 14 µM and the Dmax amounted to 20%. Also, on Cyclin E1, the DC50 was found to be 0.173 µM, the Dmax is 106% and the “Ratio of GSPT1 DC50/Cyclin E1 DC50” value is listed as above 81. For the same molecule, in the assay with Phospho-Rb (Ser807/811), the 50% inhibitory concentration (IC50) turned out to be 0.072 µM and the Emax was 99%.

Consider `COc1c(COC(=O)Nc2ccc(Oc3cccc(F)c3Cl)cc2)ccc2c1C(=O)N(C1CCC(=O)NC1=O)C2` (stereo not drawn) [Example 111, [2-(2,6-dioxopiperidin-3-yl)-4-methoxy-3-oxo-2,3-dihydro-1H-isoindol-5-yl]methyl N-[4-(2-chloro-3-fluorophenoxy)phenyl]carbamate], for which, at GSPT1, the DC50 was above 14 µM and the Dmax stood at 15%. Moreover, on Cyclin E1, half-maximal degradation (DC50) was put at 0.095 µM, the Dmax stood at 106% and the “Ratio of GSPT1 DC50/Cyclin E1 DC50” value is recorded as above 147. In the assay with Phospho-Rb (Ser807/811), it took 0.074 µM to reach half-maximal inhibition (IC50) and the Emax came out at 99%.

Regarding `COc1c(COC(=O)Nc2ccc(Oc3c(F)cccc3F)cc2)ccc2c1C(=O)N(C1CCC(=O)NC1=O)C2` (stereo not drawn) [Example 112, [2-(2,6-dioxopiperidin-3-yl)-4-methoxy-3-oxo-2,3-dihydro-1H-isoindol-5-yl]methyl N-[4-(2,6-difluorophenoxy)phenyl]carbamate], on GSPT1, the DC50 was above 14 µM and the Dmax turned out to be 26%. Further, on Cyclin E1, the half-maximal degradation concentration (DC50) stood at 0.226 µM, the Dmax was 105% and the “Ratio of GSPT1 DC50/Cyclin E1 DC50” value is recorded as above 62. Further, in the assay with Phospho-Rb (Ser807/811), the IC50 was 0.046 µM and the Emax came out at 115%.

In the case of `COc1c(COC(=O)Nc2ccc(Oc3cccc4ccccc34)cc2)ccc2c1C(=O)N(C1CCC(=O)NC1=O)C2` (stereo not drawn) [Example 113, [2-(2,6-dioxopiperidin-3-yl)-4-methoxy-3-oxo-2,3-dihydro-1H-isoindol-5-yl]methyl N-[4-(naphthalen-1-yloxy)phenyl]carbamate], on GSPT1, the DC50 is above 14 µM and the Dmax was found to be 37%. At Cyclin E1, it took 0.19 µM to reach half-maximal degradation (DC50), the Dmax stood at 113% and the “Ratio of GSPT1 DC50/Cyclin E1 DC50” value is recorded as above 74. In addition, in the assay with Phospho-Rb (Ser807/811), the 50% inhibitory concentration (IC50) stood at 0.099 µM and the Emax was 93%.

For the molecule `COc1c(COC(=O)Nc2ccc(Oc3ccc4sccc4c3)cc2)ccc2c1C(=O)N(C1CCC(=O)NC1=O)C2` (stereo not drawn) [Example 114, [2-(2,6-dioxopiperidin-3-yl)-4-methoxy-3-oxo-2,3-dihydro-1H-isoindol-5-yl]methyl N-[4-(1-benzothiophen-5-yloxy)phenyl]carbamate], at GSPT1, the DC50 is above 14 µM and the Dmax was 29%. Moreover, at Cyclin E1, the 50% degradation concentration (DC50) was found to be 0.282 µM, the Dmax amounted to 106% and the “Ratio of GSPT1 DC50/Cyclin E1 DC50” value is above 50. Moreover, in the assay on Phospho-Rb (Ser807/811), the IC50 came to 0.64 µM and the Emax came to 110%.

`COc1c(COC(=O)Nc2ccc(Oc3ccc4ccsc4c3)cc2)ccc2c1C(=O)N(C1CCC(=O)NC1=O)C2` (stereo not drawn) [Example 115, [2-(2,6-dioxopiperidin-3-yl)-4-methoxy-3-oxo-2,3-dihydro-1H-isoindol-5-yl]methyl N-[4-(1-benzothiophen-6-yloxy)phenyl]carbamate]: at GSPT1, it took 10.3 µM to reach half-maximal degradation (DC50) and the Dmax was found to be 63%. Moreover, at Cyclin E1, the half-maximal degradation concentration (DC50) worked out at 0.217 µM, the Dmax turned out to be 108% and the “Ratio of GSPT1 DC50/Cyclin E1 DC50” value came to 48. Moreover, in the assay with Phospho-Rb (Ser807/811), it took 0.247 µM to reach half-maximal inhibition (IC50) and the Emax worked out at 114%.

With `COc1c(COC(=O)Nc2ccc(Oc3cccc(Cl)c3Cl)cc2F)ccc2c1C(=O)N(C1CCC(=O)NC1=O)C2` (stereo not drawn) [Example 116, [2-(2,6-dioxopiperidin-3-yl)-4-methoxy-3-oxo-2,3-dihydro-1H-isoindol-5-yl]methyl N-[4-(2,3-dichlorophenoxy)-2-fluorophenyl]carbamate], on GSPT1, the DC50 is above 14 µM and the Dmax was determined as 43%. At Cyclin E1, half-maximal degradation (DC50) was put at 0.087 µM, the Dmax came out at 110% and the “Ratio of GSPT1 DC50/Cyclin E1 DC50” value is given as above 160. Further, in the assay with Phospho-Rb (Ser807/811), the half-maximal inhibitory concentration (IC50) was 0.073 µM and the Emax was 107%.

In the case of `COc1c(COC(=O)Nc2ccc(Oc3ccc(Cl)c(Cl)c3)cc2F)ccc2c1C(=O)N(C1CCC(=O)NC1=O)C2` (stereo not drawn) [Example 117, [2-(2,6-dioxopiperidin-3-yl)-4-methoxy-3-oxo-2,3-dihydro-1H-isoindol-5-yl]methyl N-[4-(3,4-dichlorophenoxy)-2-fluorophenyl]carbamate], on GSPT1, the DC50 is above 14 µM and the Dmax was 28%. At Cyclin E1, the half-maximal degradation concentration (DC50) is 0.104 µM, the Dmax was determined as 108% and the “Ratio of GSPT1 DC50/Cyclin E1 DC50” value is reported as above 135. Also, in the assay on Phospho-Rb (Ser807/811), the IC50 was determined as 0.115 µM and the Emax was found to be 108%.
